In patent publication US8071776B2, “Thienopyridines as allosteric potentiators of the M4 muscarinic receptor” (Eli Lilly and Company, priority 2004, dated 2011):
Several values for one entry are separate records, joined by “and”; a condition that tells them apart may be missing. Equal values may be shown once. Blank lines part the entries; values can stand above or below the compound they belong to.

Key:
[1] = tested on: Male Fisher-344 rats; assay: Conditioned avoidance response; type: in vivo, rat
Source text: The apparatus is a Coulbourn Instruments shuttle operant chamber. Each session equals a total of 50 trials, presented on a 30 second inter-trial interval, and each trial begins with simultaneous illumination of a houselight and rising of a guillotine door. The rat is given 10 seconds to cross over to the other side (an avoidance response) before a 1 mA footshock is initiated. The shock remains on until the rat crosses over to the other side (an escape response) or 10 seconds has elapsed (an escape failure). […] The number of avoidance, escape and escape failure responses during each session is recorded and used for analysis.
Each test compound is administered orally 2 hours prior to testing. Oxo (0.03 mg/kg) is administered subcutaneously 30 minutes prior to testing. Data are analyzed via a one-way (within-group design) Analysis of Variance (ANOVA). In cases of a significant ANOVA (p<0.05), post-hoc comparisons may be made in which compound doses are compared back to the Oxo alone group (paired t-test).

[2] = target: T1, hM4 receptors (Homo sapiens, UniProt P08173); assay: Calcium mobilization (FLIPR), ACh concentration-response curves, AV12 Gα15 hM4 cells; type: cell-based
T1 construct: expressed in transfected cells
T1 sequence (P08173 1-479): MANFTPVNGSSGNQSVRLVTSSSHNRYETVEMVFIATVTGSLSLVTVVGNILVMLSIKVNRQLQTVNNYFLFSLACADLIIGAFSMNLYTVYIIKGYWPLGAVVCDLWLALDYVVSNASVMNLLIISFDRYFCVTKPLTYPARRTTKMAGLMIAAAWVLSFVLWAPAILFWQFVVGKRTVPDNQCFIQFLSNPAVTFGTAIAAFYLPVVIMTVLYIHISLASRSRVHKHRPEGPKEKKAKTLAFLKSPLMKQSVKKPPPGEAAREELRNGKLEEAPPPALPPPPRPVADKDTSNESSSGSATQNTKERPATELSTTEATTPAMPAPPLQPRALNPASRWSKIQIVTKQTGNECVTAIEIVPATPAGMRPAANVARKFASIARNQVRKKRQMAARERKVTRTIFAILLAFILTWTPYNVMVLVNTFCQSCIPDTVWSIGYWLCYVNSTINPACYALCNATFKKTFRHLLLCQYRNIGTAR
Description: (§1) Automated multiple compound additions are timed by computer program. Cells are pre-incubated with increasing concentration of compounds.

[3] = target: T2, hM1 receptors (Homo sapiens, UniProt P11229); assay: Calcium mobilization (FLIPR), ACh concentration-response curves, CHO hM1 cells; type: cell-based; conditions: CHO cells stably expressing hM1
T2 construct: expressed in transfected cells
T2 sequence (P11229 1-460): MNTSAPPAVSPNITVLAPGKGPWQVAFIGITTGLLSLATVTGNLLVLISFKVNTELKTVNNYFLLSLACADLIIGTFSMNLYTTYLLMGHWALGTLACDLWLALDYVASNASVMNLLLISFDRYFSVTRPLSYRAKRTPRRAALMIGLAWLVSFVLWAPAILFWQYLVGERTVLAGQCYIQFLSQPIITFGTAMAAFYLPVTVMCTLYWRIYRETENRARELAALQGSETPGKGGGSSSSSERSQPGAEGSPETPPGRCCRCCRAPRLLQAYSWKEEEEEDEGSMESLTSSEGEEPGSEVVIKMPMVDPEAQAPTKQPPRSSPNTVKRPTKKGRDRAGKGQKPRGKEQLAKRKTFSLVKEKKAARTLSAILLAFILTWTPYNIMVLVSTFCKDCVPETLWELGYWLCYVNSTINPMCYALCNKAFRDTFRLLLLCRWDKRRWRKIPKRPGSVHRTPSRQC
Description: as §1

[4] = target: T3, hM3 receptors (Homo sapiens, UniProt P20309); assay: Calcium mobilization (FLIPR), ACh concentration-response curves, CHO hM3 cells; type: cell-based; conditions: CHO cells stably expressing hM3
T3 construct: expressed in transfected cells
Description: as §1

[5] = target: T4, hM5 receptors (Homo sapiens, UniProt P08912); assay: Calcium mobilization (FLIPR), ACh concentration-response curves, CHO hM5 cells; type: cell-based; conditions: CHO cells stably expressing hM5
T4 construct: expressed in transfected cells
T4 sequence (P08912 1-532): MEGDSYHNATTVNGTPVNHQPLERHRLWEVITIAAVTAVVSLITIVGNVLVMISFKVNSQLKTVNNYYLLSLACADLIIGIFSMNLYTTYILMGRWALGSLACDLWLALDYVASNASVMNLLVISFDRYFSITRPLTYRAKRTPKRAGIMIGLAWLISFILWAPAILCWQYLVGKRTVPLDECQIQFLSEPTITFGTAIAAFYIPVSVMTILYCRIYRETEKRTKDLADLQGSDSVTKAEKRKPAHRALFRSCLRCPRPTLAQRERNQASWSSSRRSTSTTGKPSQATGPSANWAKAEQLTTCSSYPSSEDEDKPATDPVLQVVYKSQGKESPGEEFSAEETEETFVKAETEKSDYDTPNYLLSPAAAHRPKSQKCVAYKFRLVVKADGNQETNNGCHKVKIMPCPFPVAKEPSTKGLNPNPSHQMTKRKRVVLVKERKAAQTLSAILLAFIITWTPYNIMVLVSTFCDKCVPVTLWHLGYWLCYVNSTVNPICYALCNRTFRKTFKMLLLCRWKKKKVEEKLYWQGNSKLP
Description: as §1

[6] = target: hM2 receptors (Homo sapiens, UniProt P08172); conditions: AV12 Gα15 hM2; too modest to be accurately estimated
Sequence of hM2 receptors (P08172 whole entry): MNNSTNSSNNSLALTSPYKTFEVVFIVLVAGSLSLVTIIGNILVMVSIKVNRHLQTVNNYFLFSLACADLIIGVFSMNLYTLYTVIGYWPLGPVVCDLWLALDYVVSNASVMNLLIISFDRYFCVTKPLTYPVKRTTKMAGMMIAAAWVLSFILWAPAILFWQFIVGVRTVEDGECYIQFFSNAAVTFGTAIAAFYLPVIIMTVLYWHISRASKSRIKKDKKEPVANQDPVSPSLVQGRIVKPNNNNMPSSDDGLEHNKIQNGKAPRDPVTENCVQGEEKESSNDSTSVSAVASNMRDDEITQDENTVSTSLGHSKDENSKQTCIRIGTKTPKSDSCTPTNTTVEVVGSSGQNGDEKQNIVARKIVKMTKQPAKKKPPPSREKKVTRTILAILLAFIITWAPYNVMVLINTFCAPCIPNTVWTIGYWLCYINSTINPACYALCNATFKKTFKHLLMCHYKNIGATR
Description: Using a calcium-sensitive fluorescent dye, agonist or potentiation activity of a given compound can be detected in a single assay using a Fluorescence Light Imaging Plate Reader (FLIPR) instrument. Cells are plated in Poly-D-Lysine coated black plates/clear bottom (Becton Dickinsons) at 40,000 cells per ml (100 μl/well) in growth media 24 hours prior to running the assay. The medium is removed before the addition of 50 μl fluorescence dye solution (HBSS containing 20 mM Hepes, 10 μM Fluo-3-AM, 0.05% pluronic acid F127; supplemented with 2.5 mM probenecid for CHO cell assays). The cells are incubated with the dye for 75 minutes before replacing with assay buffer (20 mM Hepes in Hanks balanced salt solution (Gibco); supplemented with 2.5 mM probenecid for CHO cells). The plate is transferred to the FLIPR machine (Molecular Devices) for fluorescence recordings. The cells are periodically excited by 488 nm light, and the emitted fluorescent light passed through a 510-570 nm filter and then detected by a cooled CCD camera. Automated multiple compound additions are timed by computer program. Cells are pre-incubated with increasing concentration of compounds. After 2 minutes, a range of acetylcholine concentrations is added to each concentration of compound. […]

T3 sequence (P20309 whole entry): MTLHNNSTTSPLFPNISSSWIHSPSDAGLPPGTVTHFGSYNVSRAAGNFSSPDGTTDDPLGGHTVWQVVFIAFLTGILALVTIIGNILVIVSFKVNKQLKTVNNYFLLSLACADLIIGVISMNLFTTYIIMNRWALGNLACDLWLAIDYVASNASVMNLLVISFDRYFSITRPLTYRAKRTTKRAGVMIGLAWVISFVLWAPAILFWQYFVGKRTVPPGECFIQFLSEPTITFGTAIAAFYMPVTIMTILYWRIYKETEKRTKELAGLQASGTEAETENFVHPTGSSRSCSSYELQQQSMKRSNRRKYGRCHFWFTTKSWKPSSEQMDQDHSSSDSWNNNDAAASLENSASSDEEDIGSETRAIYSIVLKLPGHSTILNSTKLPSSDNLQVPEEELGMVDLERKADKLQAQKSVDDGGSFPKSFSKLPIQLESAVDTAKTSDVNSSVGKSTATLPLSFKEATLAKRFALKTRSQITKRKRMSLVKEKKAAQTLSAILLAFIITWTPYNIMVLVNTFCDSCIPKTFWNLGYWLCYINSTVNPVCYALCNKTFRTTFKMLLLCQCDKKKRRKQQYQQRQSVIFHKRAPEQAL

Compound: Cc1c(Cl)c(OCC(=O)N2CCN(C)CC2)nc2sc(C(=O)NC3CC3)c(N)c12 [Example 10]
Percent Avoidance Response (Mean ± S.E.M.), Oxo + Test Compound 10 mg/kg ([1]; rat, in vivo): 85 ± 5.3%

Kd [2]: 200 ± 42 nM | potentiation of acetylcholine versus carbachol ([2]; FLIPR, both non-selective full muscarinic agonists, receptor subtype not given): potentiated in an equivalent fashion | cooperatively factor for hM4 receptors ([2]; estimated, FLIPR, ACh curves, AV12 Gα15 hM4, duplicates, at least three experiments): 34.5±3.5 | allosteric effect on ACh response [3]: No significant allosteric effect | allosteric effect on ACh response [4]: No significant allosteric effect | allosteric effect on ACh response [5]: No significant allosteric effect | allosteric effect on ACh response [6]: modest allosteric effect
Compound: COc1nc2sc(C(=O)NC3CC3)c(N)c2c(C)c1Cl [Example 1, 3-Amino-5-chloro-6-methoxy-4-methyl-thieno[2,3-b]pyridine-2-carboxylic acid cyclopropylamide]

Compound: oxotremorine sesquifumarate
Percent Avoidance Response (Mean ± S.E.M.), Oxo alone ([1]; Oxo 0.03 mg/kg subcutaneously 30 minutes prior to testing, first Oxo alone group): 93 ± 1.8% and 93 ± 1.2% and 89 ± 3.8% and 92 ± 1.5% | Percent Avoidance Response (Mean ± S.E.M.), Oxo alone (retest) ([1]; retest of Oxo alone, 0.03 mg/kg subcutaneously 30 minutes prior to testing, 0.03 mg/kg): 91 ± 0.9% and 90 ± 2.5% and 89 ± 3.2% and 91 ± 2.0%

Compound: Cc1c(Cl)c(OCCN2CCOCC2)nc2sc(C(=O)NC3CC3)c(N)c12 [Example 6, 3-Amino-5-chloro-4-methyl-6-(2-morpholin-4-yl-ethoxy)-thieno[2,3-b]pyridine-2-carboxylic acid cyclopropylamide]
Percent Avoidance Response (Mean ± S.E.M.), Oxo + Test Compound 10 mg/kg ([1]; test compound 10 mg/kg orally 2 hours prior, Oxo 0.03 mg/kg s.c. 30 minutes prior): 90 ± 3.4%

Compound: Cc1c(Cl)c(OCCN2CCOCC2)nc2sc(C(=O)NC3CC3)c(N)c12.Cl [Example 28, 3-Amino-5-chloro-4-methyl-6-(2-morpholin-4-yl-ethoxy)-thieno[2,3-b]pyridine-2-carboxylic acid cyclopropylamide hydrochloride]
Percent Avoidance Response (Mean ± S.E.M.), Oxo + Test Compound 30 mg/kg ([1]; test compound 30 mg/kg orally 2 hours prior, Oxo 0.03 mg/kg s.c. 30 minutes prior): 84 ± 6.3%
